PMC5340193 (ChemMedChem, 2017)
Where two headings read alike, the source gives them in different places. Starred links: 1 amine or outer side, 2 acyl side, 3 side chain; linkers in the order of their positions; H or OH if unused. Non-standard residues stand in square brackets, D forms with d. Residues, ends and D or L forms follow the SMILES beside them. His(π-(CH2)8Ph) = N[C@@H](Cc1cncn1CCCCCCCCc1ccccc1)C(=O)O; X2 = O=C([C@@H](N[*:1])[C@@H](CCc1ccccc1)CP(=O)(O)O)[*:2]; X1 = CC(C)[C@@H](CP(=O)(O)O)[C@H](N[*:1])C(=O)[*:2]; X3 = CC[C@@H](CP(=O)(O)O)[C@H](N[*:1])C(=O)[*:2]; Abu(4-PO3H2) = N[C@@H](CCP(=O)(O)O)C(=O)O

What was measured:
Plk1 = conditions: cited from earlier work
Plk3 PBD = target: T1, Plk3 PBD (Homo sapiens, UniProt Q9H4B4); type: binding
T1 sequence (Q9H4B4 335-646 limits assumed): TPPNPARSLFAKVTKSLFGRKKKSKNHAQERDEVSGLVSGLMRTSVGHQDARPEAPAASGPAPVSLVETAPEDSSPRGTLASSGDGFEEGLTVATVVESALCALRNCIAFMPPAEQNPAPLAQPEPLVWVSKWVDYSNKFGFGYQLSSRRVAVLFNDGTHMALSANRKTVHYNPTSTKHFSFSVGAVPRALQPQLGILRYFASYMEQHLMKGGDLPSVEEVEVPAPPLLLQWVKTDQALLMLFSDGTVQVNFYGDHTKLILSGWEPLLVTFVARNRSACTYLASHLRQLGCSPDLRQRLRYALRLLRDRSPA

full-length Plk1 = full-length Plk1 (Homo sapiens, UniProt P53350); type: binding; conditions: for more potent than the parent pThr-containing peptide 5 and its Pmab-containing congener 7 / loss of potency of the Ser to Ala variants relative to 21 and 23: full-length Plk1 competitive ELISA
Chain of full-length Plk1 (P53350 whole entry): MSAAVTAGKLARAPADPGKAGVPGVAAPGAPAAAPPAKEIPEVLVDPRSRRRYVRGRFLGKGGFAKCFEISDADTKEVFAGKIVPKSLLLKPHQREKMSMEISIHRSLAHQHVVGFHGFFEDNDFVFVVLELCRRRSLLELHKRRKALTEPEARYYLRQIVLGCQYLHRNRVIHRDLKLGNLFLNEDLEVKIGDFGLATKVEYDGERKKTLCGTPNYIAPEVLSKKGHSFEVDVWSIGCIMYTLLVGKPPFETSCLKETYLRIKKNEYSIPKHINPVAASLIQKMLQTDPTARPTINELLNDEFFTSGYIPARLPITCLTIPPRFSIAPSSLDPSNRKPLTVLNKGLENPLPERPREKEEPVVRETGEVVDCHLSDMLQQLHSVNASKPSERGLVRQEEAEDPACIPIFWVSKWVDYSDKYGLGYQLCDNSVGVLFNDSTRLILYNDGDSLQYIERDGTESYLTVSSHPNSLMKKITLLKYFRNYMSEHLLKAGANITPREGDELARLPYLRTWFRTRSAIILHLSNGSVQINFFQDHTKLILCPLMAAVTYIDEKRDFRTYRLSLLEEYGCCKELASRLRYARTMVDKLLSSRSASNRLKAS

Plk1 PBD = Plk1 PBD (Homo sapiens, UniProt P53350); type: binding
Chain of Plk1 PBD (P53350 326-603 limits assumed): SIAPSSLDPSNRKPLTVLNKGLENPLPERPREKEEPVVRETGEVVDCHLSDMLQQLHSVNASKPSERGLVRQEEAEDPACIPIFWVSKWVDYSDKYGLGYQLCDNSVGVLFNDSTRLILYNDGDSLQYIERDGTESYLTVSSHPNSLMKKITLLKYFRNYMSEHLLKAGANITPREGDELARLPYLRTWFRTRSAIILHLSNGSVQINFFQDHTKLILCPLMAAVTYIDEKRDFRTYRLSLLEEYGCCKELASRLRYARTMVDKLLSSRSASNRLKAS

Plk2 PBD = target: T2, Plk2 PBD (Homo sapiens, UniProt Q9NYY3); type: binding
T2 sequence (Q9NYY3 355-685 limits assumed): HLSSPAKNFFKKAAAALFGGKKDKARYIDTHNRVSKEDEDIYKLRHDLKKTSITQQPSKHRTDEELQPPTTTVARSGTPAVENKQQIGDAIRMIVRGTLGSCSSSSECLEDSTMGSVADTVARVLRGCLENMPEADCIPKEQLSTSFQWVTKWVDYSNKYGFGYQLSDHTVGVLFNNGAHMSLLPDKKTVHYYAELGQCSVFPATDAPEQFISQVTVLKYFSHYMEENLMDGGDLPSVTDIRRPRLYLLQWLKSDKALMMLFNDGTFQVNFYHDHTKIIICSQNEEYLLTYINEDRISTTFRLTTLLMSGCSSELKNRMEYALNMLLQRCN

[1] = full-length Plk1, competitive ELISA, average ± SEM (n = 5)

Row | Structure (SMILES) | IC50 (Plk3 PBD) | IC50 (full-length Plk1) | IC50 (Plk1 PBD) | IC50 (Plk2 PBD) | further results
1 | CC(=O)N1CCC[C@H]1C(=O)N[C@@H](CC(C)C)C(=O)N[C@@H](Cc1cncn1CCCCCCCCc1ccccc1)C(=O)N[C@@H](CO)C(=O)N[C@H](C(N)=O)[C@@H](C)OP(=O)(O)O [compound 5] |  |  |  |  | IC50 values in competitive ELISA assays against Plk1 (Plk1): low-nanomolar
2 | CC(=O)N1CCC[C@H]1C(=O)N[C@@H](CC(C)C)C(=O)N[C@@H](Cc1cncn1CCCCCCCCc1ccccc1)C(=O)N[C@@H](CO)C(=O)N[C@H](C(N)=O)[C@@H](C)CP(=O)(O)O [compound 7, reference compound] | 4400 nM |  |  |  | inhibitory potency on replacement of the pThr residue in 5 with Pmab (Plk1): complete retention of inhibitory potency
3 | CC(=O)N1CCC[C@H]1C(=O)N[C@@H](CC(C)C)C(=O)N[C@@H](Cc1cncn1CCCCCCCCc1ccccc1)C(=O)N[C@@H](CO)C(=O)N[C@@H](CCP(=O)(O)O)C(N)=O [compound 19] (Ac-PL[His(π-(CH2)8Ph)]S[Abu(4-PO3H2)]-NH2; N-terminus and C-terminus assumed) | 8800 nM | 1200 ± 300 nM | 11 ± 1 nM | 5400 nM | 
4 | CC[C@@H](CP(=O)(O)O)[C@H](NC(=O)[C@H](CO)NC(=O)[C@H](Cc1cncn1CCCCCCCCc1ccccc1)NC(=O)[C@H](CC(C)C)NC(=O)[C@@H]1CCCN1C(C)=O)C(N)=O [compound 20] (Ac-PL[His(π-(CH2)8Ph)]S[X3]-NH2; N-terminus and C-terminus assumed) |  | 200 ± 60 nM |  |  | 
5 | CC(=O)N1CCC[C@H]1C(=O)N[C@@H](CC(C)C)C(=O)N[C@@H](Cc1cncn1CCCCCCCCc1ccccc1)C(=O)N[C@@H](CO)C(=O)N[C@H](C(N)=O)[C@H](CP(=O)(O)O)C(C)C [compound 21] (Ac-PL[His(π-(CH2)8Ph)]S[X1]-NH2; N-terminus and C-terminus assumed) | 1100 nM | 60 ± 20 nM | 7 ± 1 nM | 360 ± 30 nM | more potent than the parent pThr-containing peptide 5 and its Pmab-containing congener 7 (full-length Plk1): approximately 3 fold
6 | CC(=O)N1CCC[C@H]1C(=O)N[C@@H](CC(C)C)C(=O)N[C@@H](Cc1cncn1CCCCCCCCc1ccccc1)C(=O)N[C@@H](CO)C(=O)N[C@H](C(N)=O)[C@@H](CCc1ccccc1)CP(=O)(O)O [compound 23] (Ac-PL[His(π-(CH2)8Ph)]S[X2]-NH2; N-terminus and C-terminus assumed) | 1200 nM |  | 4 ± 1 nM | 490 ± 50 nM | more potent than the parent pThr-containing peptide 5 and its Pmab-containing congener 7 (full-length Plk1): approximately 3 fold
7 | CC(=O)N1CCC[C@H]1C(=O)N[C@@H](CC(C)C)C(=O)N[C@@H](Cc1cncn1CCCCCCCCc1ccccc1)C(=O)N[C@@H](C)C(=O)N[C@H](C(N)=O)[C@H](CP(=O)(O)O)C(C)C [compound 24] (Ac-PL[His(π-(CH2)8Ph)]A[X1]-NH2; N-terminus and C-terminus assumed) |  |  |  |  | IC50 (full-length Plk1; [1]): 11000 ± 3000 nM; loss of potency of the Ser to Ala variants relative to 21 and 23 (full-length Plk1): approximate two orders-of-magnitude loss of potency
8 | CC(=O)N1CCC[C@H]1C(=O)N[C@@H](CC(C)C)C(=O)N[C@@H](Cc1cncn1CCCCCCCCc1ccccc1)C(=O)N[C@@H](C)C(=O)N[C@H](C(N)=O)[C@@H](CCc1ccccc1)CP(=O)(O)O [compound 25] (Ac-PL[His(π-(CH2)8Ph)]A[X2]-NH2; N-terminus and C-terminus assumed) |  |  |  |  | IC50 (full-length Plk1; [1]): 70000 ± 14000 nM; loss of potency of the Ser to Ala variants relative to 21 and 23 (full-length Plk1): approximate two orders-of-magnitude loss of potency
